Assay results: ChEMBL document CHEMBL1151093, “6,7,8,9-tetrahydro-3-hydroxy-1H-1-benzazepine-2,5-diones via a diels-alder reaction:antagonists with a non-planar hydrophobic region for NMDA receptor glycine sites” (Bioorg Med Chem Lett, 1995)

Biological target: Glutamate receptor ionotropic, NMDA 1 (Rattus norvegicus, UniProt P35439)
Test: Tested for the inhibition of [3H]5,7-dichlorokynurenic acid (DCKA) binding to NMDA receptor

Row | Structure (SMILES) | IC50 [µM]
1 | O=c1cc(O)c2ccccc2[nH]c1=O | 0.827
2 | O=c1cc(O)c2c([nH]c1=O)CC(Cl)C(Cl)C2 (stereo not given) | 0.131
3 | O=c1cc(O)c2ccc(Cl)cc2[nH]c1=O | 0.013

Now from value to compound:

Row | IC50 [µM] | Structure (SMILES)
4 | 3.21 | O=c1cc(O)c2c([nH]c1=O)CCCC2
5 | 0.228 | CC1Cc2[nH]c(=O)c(=O)cc(O)c2CC1C (stereo not given)
